Measurements published in the supplement of paper PMC12317010.
Counter-ions that a name gives are not always drawn.

Assay: collision cross section in nitrogen (drift tube, single-field); higher = larger gas-phase ion size
[1] = ion type: [M+H], ion source: APCI, ion mode: Positive
[2] = ion type: [M+H], ion source: ESI, ion mode: Positive
[3] = ion type: [M+Na], ion source: ESI, ion mode: Positive
[4] = ion type: [M-H], ion source: ESI, ion mode: Negative
[5] = ion type: [M+], ion source: APCI, ion mode: Positive
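Also: chemical standards at 10 µM analysed by drift tube IMS-QTOF MS in about 3.95 torr nitrogen, mean of duplicate injections differing ≤1%, mass error below 10 ppm.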

Row | SMILES | collision cross section in nitrogen [1] [Å²] | collision cross section in nitrogen [2] [Å²] | collision cross section in nitrogen [3] [Å²] | collision cross section in nitrogen [4] [Å²] | collision cross section in nitrogen [5] [Å²]
1 | CCOP(=O)(OCC)OC(=CCl)c1ccc(Cl)cc1Cl [Chlorfenvinphos] | 168.7 | 170.1 | 181 |  | 
2 | COc1cc(OC)nc(Sc2cccc(Cl)c2C(=O)O)n1 [Pyrithiobac sodium] | 166.7 | 166.6 | 173.5 |  | 
3 | CCOP(=S)(OCC)Oc1ccc(S(C)=O)cc1 (stereo not drawn) [Fensulfothion] |  | 174.5 | 169.7 |  | 
4 | CCCSP(=O)(OCC)SCCC [Ethoprop] | 151.3 | 151.5 | 169.5 |  | 
5 | Cc1ccc(S(N)(=O)=O)cc1 [4-Toluenesulfonamide] |  |  |  | 136.3 | 
6 | CCOC(=O)O[C@H](C)OC(=O)c1ccc2c(c1)cc(C(=O)NC1CCN(C(C)C)CC1)n2Cc1cc(-c2ccc(Cl)s2)on1 [AVE6324] | 268 | 267.7 | 276.4 | 269.8 | 
7 | Cc1cccc2sc3nncn3c12 [2,7,8,9-Tricyclazole] | 136.3 | 134 | 153.5 |  | 
8 | Cc1cc(CCN2CCN(c3nsc4ccccc34)CC2)cc2c1NC(=O)CC2(C)C | 202.2 | 202.4 | 205.3 | 209.3 | 
9 | N#Cc1cc(Br)c(O)c(Br)c1 [Bromoxynil] |  |  |  | 131.2 | 
10 | CC(=O)Nc1ccc(CC(=O)O)cc1 [Actarit] |  | 143.7 | 143.5 |  | 
11 | On1nnc2ccccc21 [1-Hydroxybenzotriazole] | 124.9 | 125.9 |  | 122.6 | 
12 | CCCCCCCCCCCSCC(=O)O [3-Thiatetradecanoic acid] |  |  |  | 162.7 | 
13 | CCCCCCCCC=CCCCCCCCC1=NCCN1CCO [2-(8-Heptadecenyl)-2-imidazoline-1-ethanol] | 199.3 | 199.8 |  | 196.6 | 
14 | CC(C)(O)c1ccc(CNC(=O)c2cccnc2Oc2ccc(F)cc2)cc1 | 201.1 |  | 190.4 | 196.7 | 
15 | O=C(Nc1ccccc1)c1ccccc1I [Benodanil] | 146.6 | 146.3 | 161.1 | 155.4 | 
16 | Cc1cc(C)nc(Nc2ccccc2)n1 [Pyrimethanil] | 143.4 | 143.8 |  |  | 
17 | CC(C)(c1ccccc1)c1ccc(Nc2ccc(C(C)(C)c3ccccc3)cc2)cc1 | 220.2 | 220.3 |  | 222.7 | 218.2

Row | SMILES | collision cross section in nitrogen [1] [Å²] | collision cross section in nitrogen [2] [Å²] | collision cross section in nitrogen [3] [Å²] | collision cross section in nitrogen [4] [Å²] | collision cross section in nitrogen [5] [Å²]
18 | O=C(O)c1cccc(C(F)(F)F)c1 [3-(Trifluoromethyl)benzoic acid] |  |  |  | 132.4 | 
19 | COC(=O)Cc1ccccc1 [Methyl phenylacetate] |  |  |  | 131.4 | 
20 | CC[C@H](C)[C@@H](C(=O)O)n1sc2ccccc2c1=O |  | 155.1 | 169.8 | 159.8 | 
21 | CCOP(=S)(OCC)SCS(=O)(=O)C(C)(C)C [Terbufos sulfone] |  |  | 171.3 |  | 
22 | COc1ccc2nc(N)sc2c1 [6-Methoxy-2-benzothiazolamine] | 136.6 | 136.6 |  |  | 
23 | C[C@]12CC[C@H]3[C@@H](CC[C@@]45O[C@@H]4C(O)=C(C#N)C[C@]35C)[C@@H]1CC[C@@H]2O [Trilostane] |  |  |  | 186.2 | 
24 | COc1ccc(N)c(C)c1 [4-Methoxy-2-methylaniline] | 124.8 | 135.7 |  |  | 
25 | NCc1cccnc1 [3-(Aminomethyl)pyridine] | 118.5 | 119.6 |  |  | 
26 | O=C(NCc1cccnc1)Nc1ccc([N+](=O)[O-])cc1 [N-(4-Nitrophenyl)-N'-(3-pyridinylmethyl)urea] | 174.7 | 174.3 |  | 165.3 | 
27 | CCC(Cc1ccccc1)(C(=O)c1ccc(N2CCOCC2)cc1)N(C)C (stereo not drawn) | 195.7 | 195.7 |  |  | 
28 | Cc1cccc(OP(=O)(Oc2cccc(C)c2)Oc2cccc(C)c2)c1 [Phosphoric acid, tris(3-methylphenyl) ester] | 188.7 | 188.6 | 198.9 |  | 
29 | O=c1[nH]c(=O)n([C@H]2CCCO2)cc1F [(R)-Tegafur] |  |  |  | 142.2 | 
30 | COc1cc(-c2ccc(N)c(OC)c2)ccc1N [C.I. Disperse Black 6] | 170.4 | 170 |  |  | 156.6
31 | Nc1c(S(=O)(=O)O)cc(Br)c2c1C(=O)c1ccccc1C2=O |  |  |  | 169.4 | 
32 | C=CC(=O)OCCOC(=O)CCC(=O)O [Acryloyloxyethyl succinate] |  |  | 145.9 |  | 
33 | Cc1cc(CCC(=O)OCCOCCOCCOC(=O)CCc2cc(C)c(O)c(C(C)(C)C)c2)cc(C(C)(C)C)c1O | 233.4 |  | 236.4 | 237.8 | 234.2

Now from value to compound:

Row | collision cross section in nitrogen [1] [Å²] | collision cross section in nitrogen [2] [Å²] | collision cross section in nitrogen [3] [Å²] | collision cross section in nitrogen [4] [Å²] | collision cross section in nitrogen [5] [Å²] | SMILES
34 |  |  | 189.2 | 178.9 |  | C=C[C@](C)(O)CC[C@@H]1[C@@]2(C)CCCC(C)(C)[C@@H]2CC[C@@]1(C)O [Sclareol]
35 | 179.2 | 178.5 | 184.2 | 177.7 |  | Cc1cnc(NC(=O)C2=C(O)c3ccccc3S(=O)(=O)N2C)s1 [Meloxicam]
36 | 250.9 | 250.7 | 262.3 | 236.7 |  | COc1cc(C(=O)NC2CCN(C)CC2)ccc1Nc1ncc2c(n1)N(C1CCCC1)CC(F)(F)C(=O)N2C [Ro 3280]
37 | 144.3 | 144.4 | 159.2 | 148.4 |  | c1coc(CNc2[nH]cnc3ncnc2-3)c1 [Kinetin]
38 |  |  |  | 145.8 |  | C=C(C)C(=O)Nc1ccc(Cl)c(Cl)c1 [Chloranocryl]
39 | 192.1 | 192.3 | 188.6 | 183.5 |  | OCCOCCN1CCN(C2=Nc3ccccc3Sc3ccccc32)CC1 [Quetiapine fumarate]
40 | 184.2 |  | 183.5 |  |  | Cc1ccc(C(C)NC(=O)[C@@H](NC(=O)OC(C)C)C(C)C)cc1 (stereo partly drawn) [Iprovalicarb]
41 |  |  | 245.5 |  |  | CCCCCCOC(=O)CC(CC(=O)OCCCCCC)(OC(=O)CCC)C(=O)OCCCCCC [Butyryl-n-trihexylcitrate]
42 | 119.5 |  |  |  |  | Cc1occc(=O)c1O [Maltol]
43 |  |  |  | 226.8 |  | O=C1OC2(c3cc(Br)c(O)c(Br)c3Oc3c2cc(Br)c(O)c3Br)c2c(Cl)c(Cl)c(Cl)c(Cl)c21 [D&C Red 27]
44 |  | 183.5 | 188.9 | 178.4 |  | CC(C)(C#N)c1cc(Cn2cncn2)cc(C(C)(C)C#N)c1 [Anastrozole]
45 | 203.9 | 203.6 |  | 197.5 |  | O=C(O)c1cc(N=Nc2ccc(S(=O)(=O)Nc3ccccn3)cc2)ccc1O [Sulfasalazine]
46 | 186.6 |  | 211.3 |  |  | CC(=O)[C@@]1(O)CC[C@H]2[C@@H]3C[C@H](C)C4=CC(=O)C=C[C@]4(C)[C@@]3(F)[C@@H](O)C[C@@]21C [Fluorometholone]
47 |  |  |  | 155 |  | CC(=O)C(C)=CC1C(C)=CCCC1(C)C (stereo not drawn) [Isomethyl-alpha-ionone]
48 |  | 224.6 | 225.4 |  |  | CCCCCCCCOC(=O)CCCCCCCCC(=O)OCCCCCCCC [Dioctyl sebacate]
49 |  |  | 197.2 |  |  | CCCCCCCC/C=C\CCCCCCCC(=O)OCC(O)CO (stereo not drawn) [Glyceryl monooleate]
50 | 153.9 | 154.8 | 162.4 |  |  | NC(=O)N1c2ccccc2CC(=O)c2ccccc21 [Oxcarbazepine]
51 |  |  |  | 171.1 |  | CCCN(CCC)c1c([N+](=O)[O-])cc(C(F)(F)F)c(N)c1[N+](=O)[O-] [Prodiamine]
52 | 231 | 230.9 | 234.1 | 236.4 |  | CCCCc1ccc2c(n1)[C@@H](c1ccc(OC)cc1C[C@H](C)C(=O)O)[C@H](C(=O)O)[C@H]2c1ccc2c(c1)OCO2 [MK-547]
53 | 201.6 | 201.2 | 204.9 | 203.4 |  | CCCCc1nc(Cl)c(CO)n1Cc1ccc(-c2ccccc2-c2nnn[nH]2)cc1 [Losartan potassium]
54 |  |  |  | 227.6 |  | CC1=NN(c2cc(Cl)c(S(=O)(=O)O)cc2Cl)C(=O)C1N=Nc1ccc(S(=O)(=O)O)cc1 (stereo not drawn) [C.I. Acid Yellow 17, disodium salt]
55 |  |  | 211.8 | 207.7 |  | CCCCCCCC/C=C\CCCCCCCC(=O)OC[C@@H](O)[C@H]1OC[C@H](O)[C@H]1O [Sorbitan, mono-(9Z)-9-octadecenoate]
56 |  | 128.2 |  |  |  | CC(O)CNCC(C)O (stereo not drawn) [Diisopropanolamine]
57 | 186.3 |  |  | 190 |  | CC(C)(C)CC(C)(C)c1ccc(O)c(-n2nc3ccccc3n2)c1 [Octrizole]
58 |  |  | 151.2 | 147.1 |  | CC(C)(CO)[C@@H](O)C(=O)NCCC(=O)O [Sodium pantothenate]
59 |  |  | 150.1 |  |  | OCCOCCOCCOCCOCCO [Pentaethylene glycol]
60 | 152.2 | 153.7 | 166.1 | 154.6 |  | C#CC(C)N(C)C(=O)Nc1ccc(Cl)cc1 (stereo not drawn) [Buturon]
